Several values for one entry are separate records, joined by “and”; a condition that tells them apart may be missing. Equal entries are not always repeated.
Columns and labels:
[1] = tested on: carrageenan-induced paw edema; assay: Carrageenan-induced rat paw edema test; type: in vivo; design: key to Tukey's test Summary: Significant (s); non-significant (ns); conditions: for Tukey's test Significant? / Tukey's test Summary: mean paw size 3–5 h; for Rat paw size: individual rats 1-7
Procedure: The in vivo assay was performed by the rat paw edema inhibition test as previously described ([Morris, 2003]; [Winter, Risley & Nuss, 1962]). Forty-nine male adult albino rats weighing […] were obtained from the Animal Breeding Center at the College of Veterinary Medicine, King Faisal University, and were randomly divided into seven groups (n = 7/group). The animal groups included the nontreated control group, carrageenan group, and five groups receiving carrageenan and treated with either indomethacin, celecoxib, or MMF at three doses (12.5, 25, and 50 mg/kg). All rats were allowed free access to food and water. All cages were kept in controlled rooms at 25 °C and exposed to a 12-h light/dark cycle. MMF and two reference drugs, indomethacin and celecoxib, were suspended in 1% NaCMC in normal saline. A 1% carrageenan solution in normal saline was injected into the subplantar area of the right hind paw of rats. One hour before injection of carrageenan, rats were given either indomethacin or celecoxib at a dose rate of 10 mg/kg or MMF at three dose levels of 12.5, 25, and 50 mg/kg by oral administration. […] The measurements were blind to avoid measurement bias. The King Faisal University Ethics Committee (approval no. KFU-REC/2020-10-11) approved all animal experiments. Since no samples were taken from rats, there were no anesthesia procedures. The size of the hind paw was only measured in non-anesthetized rats. At the end of the experiment, all rats were euthanized according to the regulations of the King Faisal University Ethics Committee by an overdose of pentobarbital (200 mg/kg IP) and decapitation. The effect of MMF at different doses on relieving rat paw edema was compared with the control and standard NSAID-treated groups. Significant differences were determined by one-way analysis of variance (ANOVA) with Tukey’s post hoc test. All steps were implemented using GraphPad prism software (GraphPad Software, La Jolla, CA, USA).

COX-2 = biological target: T1, COX-2 (Homo sapiens, UniProt P35354); assay: COX inhibitor screening assay, COX-2; type: biochemical
T1 construct: purchased
T1 sequence (P35354 18-604): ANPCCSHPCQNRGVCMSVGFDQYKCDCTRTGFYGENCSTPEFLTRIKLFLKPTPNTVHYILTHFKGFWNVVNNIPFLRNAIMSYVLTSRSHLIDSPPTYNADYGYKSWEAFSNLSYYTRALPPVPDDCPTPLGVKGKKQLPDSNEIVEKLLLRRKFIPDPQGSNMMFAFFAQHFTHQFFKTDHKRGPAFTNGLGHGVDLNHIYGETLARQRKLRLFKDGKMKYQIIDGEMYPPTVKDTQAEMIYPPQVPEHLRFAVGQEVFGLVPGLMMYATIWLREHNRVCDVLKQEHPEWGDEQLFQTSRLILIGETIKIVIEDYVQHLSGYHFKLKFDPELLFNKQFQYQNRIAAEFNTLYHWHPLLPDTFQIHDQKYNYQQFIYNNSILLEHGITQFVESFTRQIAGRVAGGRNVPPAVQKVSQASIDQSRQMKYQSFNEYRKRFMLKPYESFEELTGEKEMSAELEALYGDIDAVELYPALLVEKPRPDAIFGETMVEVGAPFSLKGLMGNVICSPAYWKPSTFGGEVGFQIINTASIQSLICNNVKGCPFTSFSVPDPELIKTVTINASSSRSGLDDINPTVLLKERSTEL
Procedure: (§1) The inhibitory effects of the drugs MMF and MPA on COX-1 and COX-2 were measured using the COX inhibitor screening assay kit and LOX inhibitor screening kit. […] Briefly, the reaction buffer (Tris–HCl buffer, pH 8.0) containing 5 mM EDTA, 2 mM phenol, and 1 µM hematin was measured into test tubes. The test drugs were dissolved in dimethyl sulfoxide and added to the tubes to final concentrations of […]. COX-1 or COX-2 was added to the test tubes and preincubated for 10 min at 37 °C. Arachidonic acid was then added, and the tubes were incubated for 2 min at 37 °C. The enzyme immunoassay was used to measure the concentration of the product prostaglandin F2α (PGF2α). The estimated values were determined after comparison to the predetermined standard curve. The IC50 was determined after three different experiments. The selectivity index was calculated from Eq. (1):
(§2) (1) Selectivity index=IC50COX−1/IC50COX−2

COX-1 = biological target: T2, COX-1 (Ovis aries, UniProt P05979); assay: COX inhibitor screening assay, COX-1; type: biochemical
T2 construct: purchased
T2 sequence (P05979 25-600): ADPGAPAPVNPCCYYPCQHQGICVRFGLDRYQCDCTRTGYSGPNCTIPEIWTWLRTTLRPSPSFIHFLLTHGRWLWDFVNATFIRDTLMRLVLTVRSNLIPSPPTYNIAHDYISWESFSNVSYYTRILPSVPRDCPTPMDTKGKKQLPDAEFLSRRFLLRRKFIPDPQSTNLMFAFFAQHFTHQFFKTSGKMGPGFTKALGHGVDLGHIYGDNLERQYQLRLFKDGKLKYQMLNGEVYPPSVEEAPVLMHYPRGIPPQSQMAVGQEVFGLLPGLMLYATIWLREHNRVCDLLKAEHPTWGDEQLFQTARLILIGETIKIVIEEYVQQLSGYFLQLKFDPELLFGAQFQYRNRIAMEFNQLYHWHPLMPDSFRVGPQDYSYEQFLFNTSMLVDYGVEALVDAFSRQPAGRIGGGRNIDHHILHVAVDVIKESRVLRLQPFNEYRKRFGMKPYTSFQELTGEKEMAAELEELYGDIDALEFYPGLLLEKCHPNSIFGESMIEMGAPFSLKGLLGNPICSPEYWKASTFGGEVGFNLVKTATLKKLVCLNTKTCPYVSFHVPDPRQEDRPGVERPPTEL
Procedure: as §1, §2

[2] = cited from earlier work
[3] = Indomethacin vs. MMF 12.5 mg/kg

IC50 (COX-2): 190 nM
IC50 (COX-1): 5530 nM
Structure (SMILES): COc1c(C)c2c(c(O)c1C/C=C(\C)CCC(=O)OCCN1CCOCC1)C(=O)OC2 [Mycophenolate mofetil]
Rat paw size at 3, 4 and 5 h after treatment ([1]; 12.5, 25, 50 mg/kg MMF): dose-dependent decrease in edema
Rat paw edema 2–5 h after drug administration ([1]; 12.5, 25 and 50 mg/kg MMF oral): significant decrease
Tukey's test Significant? ([1]; Carrageenan vs. MMF 12.5 mg/kg): Yes
Tukey's test Summary ([1]; Carrageenan vs. MMF 12.5 mg/kg): s
Tukey's test Significant? ([1]; Carrageenan vs. MMF 25 mg/kg): Yes
Tukey's test Summary ([1]; Carrageenan vs. MMF 25 mg/kg): s
Tukey's test Significant? ([1]; Carrageenan vs. MMF 50 mg/kg): Yes
Tukey's test Summary ([1]; Carrageenan vs. MMF 50 mg/kg): s
Tukey's test Significant? ([1]; Celecoxib vs. MMF 12.5 mg/kg): No
Tukey's test Summary ([1]; Celecoxib vs. MMF 12.5 mg/kg): ns
Tukey's test Significant? ([1]; Celecoxib vs. MMF 25 mg/kg): No
Tukey's test Summary ([1]; Celecoxib vs. MMF 25 mg/kg): ns
Tukey's test Significant? ([1]; Celecoxib vs. MMF 50 mg/kg): No
Tukey's test Summary ([1]; Celecoxib vs. MMF 50 mg/kg): ns
Tukey's test Significant? [1, 3]: No
Tukey's test Summary [1, 3]: ns
Tukey's test Significant? ([1]; Indomethacin vs. MMF 25 mg/kg): No
Tukey's test Summary ([1]; Indomethacin vs. MMF 25 mg/kg): ns
Rat paw size ([1]; MMF 12.5 mg Kg oral, Time (h) 1): 0.75 cm (3×) and 0.73 cm (3×) and 0.7 cm
Rat paw size ([1]; MMF 12.5 mg Kg oral, Time (h) 2): 0.75 cm (3×) and 0.76 cm (3×) and 0.8 cm
Rat paw size ([1]; MMF 12.5 mg Kg oral, Time (h) 3): 0.75 cm and 0.8 cm
Rat paw size ([1]; MMF 25 mg/Kg oral, Time (h) 1): 0.74 cm (2×) and 0.75 cm (4×) and 0.77 cm
Rat paw size ([1]; MMF 25 mg/Kg oral, Time (h) 2): 0.7 cm (3×) and 0.65 cm and 0.71 cm and 0.75 cm and 0.69 cm
Rat paw size ([1]; MMF 25 mg/Kg oral, Time (h) 3): 0.59 cm and 0.6 cm and 0.55 cm (2×) and 0.5 cm and 0.65 cm and 0.57 cm
Rat paw size ([1]; MMF 25 mg/Kg oral, Time (h) 4): 0.46 cm and 0.5 cm (2×) and 0.45 cm (2×) and 0.47 cm and 0.48 cm
Rat paw size ([1]; MMF 25 mg/Kg oral, Time (h) 5): 0.45 cm (5×) and 0.5 cm and 0.4 cm
Rat paw size ([1]; MMF 25 mg/Kg oral, Time (h) 6): 0.57 cm and 0.6 cm (2×) and 0.5 cm and 0.65 cm and 0.55 cm and 0.54 cm
Rat paw size ([1]; MMF 50mg/kg oral, Time (h) 1): 0.75 cm
Rat paw size ([1]; MMF 50mg/kg oral, Time (h) 2): 0.75 cm and 0.7 cm (3×) and 0.65 cm and 0.66 cm and 0.68 cm
Rat paw size ([1]; MMF 50mg/kg oral, Time (h) 3): 0.65 cm (2×) and 0.6 cm (2×) and 0.55 cm and 0.62 cm and 0.58 cm
Rat paw size ([1]; MMF 50mg/kg oral, Time (h) 4): 0.55 cm (2×) and 0.5 cm (2×) and 0.52 cm and 0.53 cm and 0.51 cm
Rat paw size ([1]; MMF 50mg/kg oral, Time (h) 5): 0.45 cm (3×) and 0.5 cm and 0.46 cm (3×)
Rat paw size ([1]; MMF 50mg/kg oral, Time (h) 6): 0.6 cm (3×) and 0.5 cm and 0.65 cm and 0.56 cm and 0.58 cm
Rat paw edema after treatment ([1]; MMF 12.5–50 mg/kg, indomethacin or celecoxib 10 mg/kg oral): significantly relieved
Most effective dose in the rat paw edema test ([1]; oral): 50 mg/kg
Maximal serum concentration (Cmax) ([2]; after 1–2 g oral doses, ref Ferreira et al., 2020): 18000 to 20000 ng/mL
Conversion to MPA by liver carboxylesterases 1 and 2 ([2]; after oral intake, ref Lamba et al., 2014): completely converted to MPA

Source: paper PMC8092108, “Mycophenolate suppresses inflammation by inhibiting prostaglandin synthases: a study of molecular and experimental drug repurposing” (PeerJ, 2021)
